From patent US20240067693A1, “POLYPEPTIDES AND USES THEREOF” (MEDIMMUNE LIMITED, priority 2020, published 2024) come the findings set out here.

Numbered stars: 1 amine (or outer) side, 2 acyl side, 3 side chain; on linkers, the order of the positions; unused ones are H or OH. Bridge positions count the residues as written; N and C are the ends. Square brackets hold non-standard residues; d marks the D form. Side chains are listed from the residue outwards. Peptide text beside a SMILES is read from it. * marks the point of attachment. C18 diacid = O=C(O)CCCCCCCCCCCCCCCCC(=O)*; γGlu = O=C(O)[C@H](CCC(=O)[*:2])N[*:1]; αMeF = C[C@](N)(Cc1ccccc1)C(=O)O; αMeS = C[C@](N)(CO)C(=O)O; Dab = NCC[C@H](N)C(=O)O; Aib = CC(C)(N)C(=O)O

Test [1] concerns the target T1, human amylin receptor (calcitonin receptor co-expressed with receptor activity modifying protein, RAMP3) (hAMYR3) (Homo sapiens, UniProt O60896+P30988).
T1 construct: expressed in transfected cells
T1 sequence (P30988 25-474): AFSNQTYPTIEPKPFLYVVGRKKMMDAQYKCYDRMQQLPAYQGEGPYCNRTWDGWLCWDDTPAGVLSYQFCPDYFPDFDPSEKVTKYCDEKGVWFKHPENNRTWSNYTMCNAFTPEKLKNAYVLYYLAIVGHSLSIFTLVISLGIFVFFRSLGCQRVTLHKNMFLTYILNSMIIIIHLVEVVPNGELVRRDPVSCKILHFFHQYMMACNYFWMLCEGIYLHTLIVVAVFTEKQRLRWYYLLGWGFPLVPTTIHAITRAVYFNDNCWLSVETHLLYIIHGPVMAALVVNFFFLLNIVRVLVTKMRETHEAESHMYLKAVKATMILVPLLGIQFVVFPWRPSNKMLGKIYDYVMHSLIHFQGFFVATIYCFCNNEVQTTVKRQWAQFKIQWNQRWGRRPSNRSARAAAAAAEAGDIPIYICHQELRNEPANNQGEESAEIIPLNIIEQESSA
T1 sequence (O60896 24-148 partner): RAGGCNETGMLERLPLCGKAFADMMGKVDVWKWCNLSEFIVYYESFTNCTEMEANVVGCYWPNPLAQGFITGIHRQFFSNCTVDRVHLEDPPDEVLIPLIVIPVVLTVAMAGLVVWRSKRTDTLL
Put plainly: cAMP production in 1321N1 cells with stable recombinant expression of human amylin receptor (hAMYR3). The format is cell-based. The settings on record: for Ratio (selectivity hAMYR vs hCTR, ratio of EC50 values at the two receptors): EC50 hCTR / EC50 hAMYR3; for EC50: cAMP, 1321N1 cells, assay buffer with 0.1% BSA, read-out: EC50 (pM) hAMYR3. The method, then:
(§1) The functional activities of lipidated pramlintide analogue peptides, such as cAMP production, were tested in 1321N1 cell line with stable recombinant expression of human calcitonin receptor (hCTR) or human amylin receptor (calcitonin receptor co-expressed with receptor activity modifying protein, RAMP3) (hAMYR3) or HEK cells with stable recombinant expression of rat calcitonin receptor (rat CTR) or rat amylin receptor (calcitonin receptor co-expressed with receptor activity modifying protein, RAMP3) (Rat AMYR3).
(§2) Cryopreserved cell stock was thawed rapidly in a water-bath, suspended in assay buffer (0.1% BSA (Sigma # A3059) in HBSS (Sigma # H8264) with 25 mM HEPES, pH 7.4 and containing 0.5 mM IB MX (Sigma# 17018)) and spun at 240×g for 5 minutes. Cells were re-suspended in assay buffer at a batch-dependent optimized concentration (e.g. hCTR cells at 0.125×10^5 cells/mL, hAMYR3 cells at 0.125×10^5 cells/mL, rat CTR cells at 1x10^5 cells/mL, rat AMYR3 at 2×10^5 cells/mL).
(§3) The test peptide stock was prepared in DMSO and diluted in assay buffer to reach stated concentrations and transferred in duplicates into a 384-black shallow well microtitre assay plate (Corning # 3676). Cells were added to the assay plate, incubated at room temperature for 30 minutes and the cAMP level measured using cAMP dynamic 2 HTRF kit (Cisbio, Cat # 62AM4PEJ), following the two step protocol as per manufacturer's recommendations. The plates were read on an Envision (Perkin Elmer) using excitation wavelength of 320 nm and emission wavelengths of 620nm & 665 nm.
(§4) Data was transformed to % Delta F as described in the manufacturer's guidelines and analyzed as percent activation of maximal amylin or calcitonin effect by 4-parameter logistic fit to determine EC50 values. The selectivity of a peptide to hAMYR vs hCTR is defined as a ratio of EC50 values at the two receptors.

Test [2] deals with T2, human calcitonin receptor (hCTR) (Homo sapiens, UniProt P30988).
T2 construct: expressed in transfected cells
T2 sequence (P30988 25-474): T1 sequence (P30988 25-474)
The test is described as follows: cAMP production in 1321N1 cells with stable recombinant expression of human calcitonin receptor (hCTR). The format is cell-based. The settings on record: cAMP, 1321N1 cells, assay buffer with 0.1% BSA; read-out: EC50 (pM) hCTR. The protocol: as §1, §2, §3, §4

As for `CC[C@H](C)[C@H](NC(=O)[C@@H]1CCCN1C(=O)CNC(=O)[C@H](Cc1ccccc1)NC(=O)[C@H](CC(N)=O)NC(=O)[C@H](CC(N)=O)NC(=O)[C@](C)(CO)NC(=O)[C@H](CO)NC(=O)[C@H](Cc1c[nH]cn1)NC(=O)[C@@H](NC(=O)[C@H](CC(C)C)NC(=O)[C@H](Cc1ccccc1)NC(=O)[C@H](CC(N)=O)NC(=O)[C@H](C)NC(=O)[C@H](CC(C)C)NC(=O)[C@H](CCCNC(=N)N)NC(=O)[C@H](CCC(N)=O)NC(=O)[C@@H](NC(=O)[C@H](C)NC(=O)[C@@H]1CSSC[C@H](NC(=O)[C@@H](N)CCCCNC(=O)CC[C@H](NC(=O)CC[C@H](NC(=O)CCCCCCCCCCCCCCCCC(=O)O)C(=O)O)C(=O)O)C(=O)N[C@@H](CC(N)=O)C(=O)N[C@@H]([C@@H](C)O)C(=O)N[C@@H](C)C(=O)N[C@@H]([C@@H](C)O)C(=O)N1)[C@@H](C)O)C(C)C)C(=O)N[C@@H](CC(C)C)C(=O)N1CCC[C@H]1C(=O)N1CCC[C@H]1C(=O)N[C@H](C(=O)N[C@@H](CC(N)=O)C(=O)N[C@H](C(=O)NCC(=O)N[C@@H](CO)C(=O)N[C@@H](CC(N)=O)C(=O)N[C@H](C(=O)N[C@@H](Cc1ccc(O)cc1)C(N)=O)[C@@H](C)O)C(C)C)[C@@H](C)O` [Peptide 22, K(γE-γE-C18diacid)[CNTATC]ATQRLANFLVHS(αMeSer)NNFGPILPPTNVGSNTY-amide] (H-K([γGlu-γGlu-C18 diacid])CNTATCATQRLANFLVHS[αMeS]NNFGPILPPTNVGSNTY-NH2; disulfide 2-7; N-terminus assumed), in test [1], the “Ratio (selectivity hAMYR vs hCTR, ratio of EC50 values at the two receptors)” value came out at 40 and the EC50 turned out to be 162 pM. The EC50 in test [2] was determined as 6540 pM.
For the molecule `CC[C@H](C)[C@H](NC(=O)[C@@H]1CCCN1C(=O)CNC(=O)[C@](C)(Cc1ccccc1)NC(=O)[C@H](CC(N)=O)NC(=O)[C@H](CC(N)=O)NC(=O)[C@H](CO)NC(=O)[C@H](CO)NC(=O)[C@H](Cc1c[nH]cn1)NC(=O)[C@@H](NC(=O)[C@H](CC(C)C)NC(=O)[C@H](Cc1ccccc1)NC(=O)[C@H](CC(N)=O)NC(=O)[C@H](C)NC(=O)[C@H](CC(C)C)NC(=O)[C@H](CCCNC(=N)N)NC(=O)[C@H](CCC(N)=O)NC(=O)[C@@H](NC(=O)[C@H](C)NC(=O)[C@@H]1CSSC[C@H](NC(=O)[C@@H](N)CCCCNC(=O)CC[C@H](NC(=O)CC[C@H](NC(=O)CCCCCCCCCCCCCCCCC(=O)O)C(=O)O)C(=O)O)C(=O)N[C@@H](CC(N)=O)C(=O)N[C@@H]([C@@H](C)O)C(=O)N[C@@H](C)C(=O)N[C@@H]([C@@H](C)O)C(=O)N1)[C@@H](C)O)C(C)C)C(=O)N[C@@H](CC(C)C)C(=O)N1CCC[C@H]1C(=O)N1CCC[C@H]1C(=O)N[C@H](C(=O)N[C@@H](CCC(=O)O)C(=O)N[C@H](C(=O)NCC(=O)N[C@@H](CO)C(=O)N[C@@H](CC(N)=O)C(=O)N[C@H](C(=O)N[C@@H](Cc1ccc(O)cc1)C(N)=O)[C@@H](C)O)C(C)C)[C@@H](C)O` [Peptide 23, K(γE-γE-C18diacid)[CNTATC]ATQRLANFLVHSSNN(αMePhe)GPILPPTEVGSNTY-amide] (H-K([γGlu-γGlu-C18 diacid])CNTATCATQRLANFLVHSSNN[αMeF]GPILPPTEVGSNTY-NH2; disulfide 2-7), in test [1], the “Ratio (selectivity hAMYR vs hCTR, ratio of EC50 values at the two receptors)” value was 2 and the EC50 was determined as 238 pM. In addition, the EC50 in test [2] was determined as 589 pM.
In the same order, the values of `CC[C@H](C)[C@H](NC(=O)[C@@H]1CCCN1C(=O)CNC(=O)[C@](C)(Cc1ccccc1)NC(=O)[C@H](CC(N)=O)NC(=O)[C@H](CC(N)=O)NC(=O)[C@H](CO)NC(=O)[C@H](CO)NC(=O)[C@H](Cc1c[nH]cn1)NC(=O)C(C)(C)NC(=O)[C@H](CC(C)C)NC(=O)[C@H](Cc1ccccc1)NC(=O)[C@H](CC(N)=O)NC(=O)[C@H](C)NC(=O)[C@H](CC(C)C)NC(=O)[C@H](CCCNC(=N)N)NC(=O)[C@H](CCC(N)=O)NC(=O)[C@@H](NC(=O)[C@H](C)NC(=O)[C@@H]1CSSC[C@H](NC(=O)[C@@H](N)CCCCNC(=O)CC[C@H](NC(=O)CC[C@H](NC(=O)CCCCCCCCCCCCCCCCC(=O)O)C(=O)O)C(=O)O)C(=O)N[C@@H](CC(N)=O)C(=O)N[C@@H]([C@@H](C)O)C(=O)N[C@@H](C)C(=O)N[C@@H]([C@@H](C)O)C(=O)N1)[C@@H](C)O)C(=O)N[C@@H](CC(C)C)C(=O)N1CCC[C@H]1C(=O)N1CCC[C@H]1C(=O)N[C@H](C(=O)N[C@@H](CC(N)=O)C(=O)N[C@H](C(=O)NCC(=O)N[C@@H](CO)C(=O)N[C@@H](CC(N)=O)C(=O)N[C@H](C(=O)N[C@@H](Cc1ccc(O)cc1)C(N)=O)[C@@H](C)O)C(C)C)[C@@H](C)O` [Peptide 26, K(γE-γE-C18diacid)[CNTATC]ATQRLANFL(Aib)HSSNN(αMePhe)GPILPPTNVGSNTY-amide] (H-K([γGlu-γGlu-C18 diacid])CNTATCATQRLANFL[Aib]HSSNN[αMeF]GPILPPTNVGSNTY-NH2; disulfide 2-7) are 7, 409 pM and 2800 pM.
With `CC[C@H](C)[C@@H]1NC(=O)[C@H](CC(N)=O)NC(=O)[C@@H](NC(=O)[C@@H](N)CCCCNC(=O)CC[C@H](NC(=O)CC[C@H](NC(=O)CCCCCCCCCCCCCCCCC(=O)O)C(=O)O)C(=O)O)CSSC[C@@H](C(=O)N[C@@H](C)C(=O)N[C@H](C(=O)N[C@@H](CCC(N)=O)C(=O)N[C@@H](CCCNC(=N)N)C(=O)N[C@@H](CC(C)C)C(=O)N[C@@H](C)C(=O)N[C@@H](CC(N)=O)C(=O)N[C@@H](Cc2ccccc2)C(=O)N[C@@H](CC(C)C)C(=O)N[C@H](C(=O)N[C@@H](Cc2c[nH]cn2)C(=O)N[C@@H](CO)C(=O)N[C@@H](CO)C(=O)N[C@@H](CCN)C(=O)N[C@@H](CC(N)=O)C(=O)N[C@@H](Cc2ccccc2)C(=O)NCC(=O)N2CCC[C@H]2C(=O)N[C@H](C(=O)N[C@@H](CC(C)C)C(=O)N2CCC[C@H]2C(=O)N2CCC[C@H]2C(=O)N[C@H](C(=O)N[C@@H](CC(N)=O)C(=O)N[C@H](C(=O)NCC(=O)N[C@@H](CO)C(=O)N[C@@H](CCCNC(=N)N)C(=O)N[C@H](C(=O)N[C@@H](Cc2ccc(O)cc2)C(N)=O)[C@@H](C)O)C(C)C)[C@@H](C)O)[C@@H](C)CC)C(C)C)[C@@H](C)O)NC(=O)[C@H]([C@@H](C)O)NC(=O)[C@H](C)NC1=O` [Peptide 27, K(γE-γE-C18diacid)[CNIATC]ATQRLANFLVHSS(Dab)NFGPILPPTNVGSRTY-amide] (H-K([γGlu-γGlu-C18 diacid])CNIATCATQRLANFLVHSS[Dab]NFGPILPPTNVGSRTY-NH2; disulfide 2-7; N-terminus assumed), the “Ratio (selectivity hAMYR vs hCTR, ratio of EC50 values at the two receptors)” value in test [1] is 5. Besides, the results for the EC50 in test [1] and in test [2] were 134 pM and 731 pM, respectively.
